Test results published in ChEMBL document CHEMBL1926659, “CK2α and CK2α' subunits differ in their sensitivity to 4,5,6,7-tetrabromo- and 4,5,6,7-tetraiodo-1H-benzimidazole derivatives” (Eur J Med Chem, 2012).

Key:
[1] = biological target: T1, Casein kinase II subunit alpha' (Homo sapiens, UniProt P19784); test: Inhibition of human CK2 alpha' catalytic subunit expressed in Escherichia coli BL21 (DE3) assessed as [33P]gamma-ATP incorporation into P2B substrate after 15 mins by scintillation counting
[2] = biological target: T2, Casein kinase II subunit alpha (Homo sapiens, UniProt P68400); test: Inhibition of human CK2 alpha catalytic subunit expressed in Escherichia coli BL21 (DE3) assessed as [32P]gamma-ATP incorporation into RRRADDSDDDDD substrate after 15 mins by scintillation counting
[3] = biological target: T1, Casein kinase II subunit alpha'; test: Inhibition of human CK2 alpha' catalytic subunit expressed in Escherichia coli […] (DE3) assessed as [33P]gamma-ATP incorporation into RRRADDSDDDDD substrate after 15 mins by scintillation counting
[4] = biological target: T2, Casein kinase II subunit alpha; test: Inhibition of human CK2 alpha catalytic subunit expressed in Escherichia coli BL21 (DE3) assessed as [32P]gamma-ATP incorporation into P2B substrate after 15 mins by scintillation counting

T1 sequence (P19784 whole entry): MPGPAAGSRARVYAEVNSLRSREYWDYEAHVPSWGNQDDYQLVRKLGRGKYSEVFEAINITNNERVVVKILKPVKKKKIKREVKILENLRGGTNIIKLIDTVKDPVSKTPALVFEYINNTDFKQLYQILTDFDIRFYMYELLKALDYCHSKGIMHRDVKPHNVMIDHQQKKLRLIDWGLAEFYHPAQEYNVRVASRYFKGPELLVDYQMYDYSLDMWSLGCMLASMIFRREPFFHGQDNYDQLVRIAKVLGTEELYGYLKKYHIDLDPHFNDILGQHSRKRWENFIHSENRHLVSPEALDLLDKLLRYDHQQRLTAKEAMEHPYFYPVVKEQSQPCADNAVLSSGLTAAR
T2 sequence (P68400 whole entry): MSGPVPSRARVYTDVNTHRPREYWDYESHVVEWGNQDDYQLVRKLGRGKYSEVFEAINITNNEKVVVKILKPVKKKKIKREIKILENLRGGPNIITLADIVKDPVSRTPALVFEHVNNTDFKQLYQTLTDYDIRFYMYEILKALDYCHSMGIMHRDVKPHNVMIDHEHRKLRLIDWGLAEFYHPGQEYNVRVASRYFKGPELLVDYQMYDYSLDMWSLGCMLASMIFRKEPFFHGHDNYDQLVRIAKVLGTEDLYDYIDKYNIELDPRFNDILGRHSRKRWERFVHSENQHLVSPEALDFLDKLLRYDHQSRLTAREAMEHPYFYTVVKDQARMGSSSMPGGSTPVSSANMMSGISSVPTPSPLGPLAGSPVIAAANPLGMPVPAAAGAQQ

Ki [1] [nM]	Ki [2] [nM]	Ki [3] [nM]	Ki [4] [nM]	SMILES
100	137	55	112	Cn1c(SCCC(=O)O)nc2c(Br)c(Br)c(Br)c(Br)c21
88	210	44	77	O=C(O)CCCSc1nc2c(Br)c(Br)c(Br)c(Br)c2[nH]1
188	368	195	472	O=C(O)CCCn1cnc2c(Br)c(Br)c(Br)c(Br)c21
83	501	768	88	Cn1c(SCCCC(=O)O)nc2c(Br)c(Br)c(Br)c(Br)c21
37	170	49	106	O=C(O)CSc1nc2c(Br)c(Br)c(Br)c(Br)c2[nH]1
35	172	31	116	O=C(O)CCSc1nc2c(Br)c(Br)c(Br)c(Br)c2[nH]1
200	13	24	143	Cn1c(SCC(=O)O)nc2c(Br)c(Br)c(Br)c(Br)c21

Continued, compound first:

SMILES	Ki [1] [nM]	Ki [2] [nM]	Ki [3] [nM]	Ki [4] [nM]
Ic1c(I)c(I)c2[nH]cnc2c1I	71	43	21	266
O=C(O)Cn1cnc2c(I)c(I)c(I)c(I)c21	62	261	324	378
CN(C)c1nc2c(Br)c(Br)c(Br)c(Br)c2n1CCCC(=O)O	139	456	93	860
O=C(O)CSc1nc2c(I)c(I)c(I)c(I)c2[nH]1	78	80	106	110
O=C(O)Cn1cnc2c(Br)c(Br)c(Br)c(Br)c21	609	670	342	798
CN(C)c1nc2c(Br)c(Br)c(Br)c(Br)c2n1C	109	154	35	212
CN(C)c1nc2c(Br)c(Br)c(Br)c(Br)c2n1CC(=O)O	66	83	21	88
Brc1c(Br)c(Br)c2[nH]cnc2c1Br	270		343	
